A word on the AC50: it is the concentration giving half of the maximal activity seen.

The assay concerns the target T. gondii ME49Luc in IFN-y HeLa, luciferase, 72 h. The assay can be described thus: T. gondii growth inhibition with IFN-gamma, dose response, cell-based, ME49Luc, HeLa, luciferase, 72 h (AID 1259418).

Values joined by “and” are separate entries in the source; they are usually repeats but may differ in a detail not shown here. Equal entries are not always repeated. Inconclusive results are not listed. Active and inactive are the calls of the source.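 The calls were made as follows: active = fitted half-maximal concentration of signal decrease at or below twice the sample's top tested concentration; inconclusive = flat curve between -70 and -30 percent, or poor fit; inactive = flat within 30 percent, signal rise, or potency above limit.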

Turning to `COc1cccc(-c2nc(Cn3c(=O)c4c(C)cc(C)nc4n(-c4ccccc4)c3=O)c(C)o2)c1OC`, the AC50 was > 39 µM (inactive). Under `CC(C)CC#Cc1ccc([C@H]2[C@@H](CO)N3C(=O)CN(C(=O)c4cccc(F)c4)C[C@H]23)cc1` stands 15.5 µM; under `Cc1ccc(-c2csc(-c3cccn3CC(=O)NCCN3CCC(C)CC3)n2)cc1`, 6.43 µM. Under `CN(C)CCCNC(=O)c1cc(-c2cnc(-c3ccccc3)nc2)cn1C` stands 30.1 µM; under `Cc1ccccc1CN1C[C@@H]2c3nc(N4CCCC(C)C4)ncc3CS(=O)(=O)[C@H]2C1` (some centres undefined), 24.5 µM and 4.74 µM; under `O=S(=O)(c1cccs1)N1CCC2(CC1)NCCN=C2NCc1cccc(F)c1`, 26.1 µM. Consider `O=C(Cc1ccncc1)N1CCCCN2[C@H](CO)[C@H](c3ccc(C#Cc4ccccc4F)cc3)[C@@H]2C1`, for which the AC50 is 8.53 µM.

In the case of `Cc1ccc(OCC(=O)Nc2ccc(-c3nc(-c4ccccc4)co3)cc2)cc1`, the AC50 is > 39 µM (inactive). Under `Cc1cccc(CNC2=NCCNC23CCN(S(=O)(=O)c2cc(C)c(C)cc2C)CC3)c1` stands 5.49 µM; under `CCCCNc1ncnc2c1cnn2-c1ccc(C)cc1C`, 28.1 µM.

Consider `CCOc1ccc(-c2nc(CN3CCN(C(=O)Nc4cc(OC)ccc4OC)CC3)c(C)o2)cc1`, for which the AC50 is 38 µM. Consider `CC(C)NC(=O)N1CC(=O)N2[C@H](CO)[C@@H](c3ccc(/C=C/c4ccccc4)cc3)[C@H]2C1`, for which the AC50 is 26.5 µM and 8.87 µM. For `Fc1ccc(CSc2nc(NCc3ccccc3)c3ccccc3n2)cc1`, the AC50 was 17.8 µM. Under `CCOc1ccccc1-c1nc(CN(c2ccc(OC)cc2)S(=O)(=O)c2ccc(C)cc2)c(C)o1` stands 10.7 µM. Take `CN(C)C(=O)c1ccc(-c2ccc(C3[C@@H]4CN(Cc5ccc6c(c5)OCO6)C[C@H]3N4)cc2)cc1` (some centres undefined): the AC50 is 17.3 µM. As for `Cc1nc(OCC(=O)NCc2ccc3c(c2)OCO3)c2ccccc2n1`, the half-maximal activity concentration (AC50) was 21.2 µM. `COc1ccc(N(Cc2nc(-c3ccccc3OC)oc2C)S(=O)(=O)c2ccc(OC)cc2)cc1`: the AC50 is 17.9 µM. Consider `CC(C)Cc1ccc(S(=O)(=O)N2CCC3(CC2)NCCN=C3NCc2ccc(F)cc2)cc1`, for which the half-maximal activity concentration (AC50) is 6.29 µM. Under `COc1ccc(CNC2=NCCNC23CCN(S(=O)(=O)c2ccc(Cl)s2)CC3)cc1` stands 3.91 µM.

With `Clc1ccc(-c2nc(NC3CCCC3)c3ccccc3n2)cc1`, the AC50 is 17.6 µM. Under `COc1ccccc1Cn1ncc2c1CCCC2NC(=O)c1cc(-c2cccs2)no1` (centres undefined) stands 14.1 µM.

Regarding `CCCNC(=O)c1cc(-c2ccn(CC3CC3)n2)n2ccccc12`, the concentration at half-maximal activity (AC50) was 26.9 µM. In the case of `COc1cccc(-c2nc3c(s2)CN(C(=O)Nc2ccc(C)c(F)c2)CC3)c1`, the AC50 is 13.1 µM. Under `CO[C@@H]1CCN(S(=O)(=O)N(C)C)C[C@@H]1Cc1cccc(C)c1` stands 23.5 µM; under `CCCCNC(=O)CCC1N=C2c3ccccc3N=C(SCc3ccc(C)cc3C)N2C1=O` (centres undefined), 25.1 µM.

In the case of `O=C(C[C@H]1CC[C@H]2[C@@H](COC[C@H](O)CN2Cc2ccc(Oc3ccccc3)cc2)O1)N1CCN(c2ccccc2)CC1`, the AC50 was 12.1 µM and 21.2 µM. Under `O=C(CC1N=C2c3ccccc3N=C(SCc3ccccc3F)N2C1=O)NCc1cccs1` (centres undefined) stands 18.4 µM.

As for `CCCNC(=O)N1C[C@@H]2N[C@H](C1)C2c1ccc(-c2ccc(OC)cc2)cc1` (some centres undefined), the half-maximal activity concentration (AC50) is 17.9 µM and 23.9 µM. Under `Cc1ccc(NC(=O)N2CCN(Cc3nc(-c4cccc(Cl)c4)oc3C)CC2)cc1F` stands 7.24 µM.

In the case of `COc1ccc(-c2nc(NCC3CCN(Cc4ccc(C)cc4)C3)c3ccccc3n2)cc1` (centres undefined), the half-maximal activity concentration (AC50) is 13.5 µM. Take `COc1ccc2c(c1)NC1(CCN(C(=O)Cc3ccc(OC)c(OC)c3)CC1)c1cccn1-2`: the AC50 was > 39 µM (inactive). Take `O=C(NCCc1csc(-c2ccccc2)n1)[C@H]1CCCN1S(=O)(=O)c1ccc(Cl)s1`: the AC50 is 12.9 µM. Under `N#C[C@H]1N[C@@H](CO)[C@@H]1c1ccc(C#CC2CCCCC2)cc1` stands 19.1 µM; under `CCc1nc(OCC(=O)Nc2cccc(Br)c2)c2ccccc2n1`, > 39 µM (inactive); under `Cc1ccccc1-c1nc(CN2CCN(C(=O)NC3CCCC3)CC2)c(C)o1`, > 39 µM (inactive). Under `N#C[C@H]1[C@@H](c2ccc(-c3cccc(F)c3)cc2)[C@H](CO)N1C(=O)NC1CCCC1` stands 10.1 µM; under `C[C@@H]1CN([C@@H](C)CO)C(=O)c2cccc(NC(=O)NC3CCCCC3)c2O[C@@H]1CN(C)Cc1ccc(C(F)(F)F)cc1`, 25.7 µM. Under `CC(C)(C)CC(C)(C)c1ccc(OCCOCC[N+](C)(C)Cc2ccccc2)cc1` stands 15.6 µM; under `CCCN1CCN(CCCNc2nc(-c3ccc(OC)cc3)nc3ccccc23)CC1`, 21.9 µM. Take `Cc1c(Cl)cccc1NC(=O)CN1CCC2(CC1)N=C(c1cccc(F)c1)C(=O)N2`: the AC50 is > 39 µM (inactive). Regarding `COc1ccc(CN2CCC(c3cc4c(ncn4C)c(-c4ccc(OC)cc4)n3)CC2)cc1`, the concentration at half-maximal activity (AC50) was 24.7 µM. Under `O=S(=O)(c1cccs1)N1CCC2(CC1)NCCN=C2NCc1ccc(C(F)(F)F)cc1` stands 23 µM; under `O=S(=O)(c1ccc(Cl)s1)N1CCC2(CC1)NCCN=C2NCc1cc(F)cc(F)c1`, 18 µM; under `COc1ccc(-c2nc(C)c(-c3ccc(SCc4cc(C)ccc4C)nn3)s2)cc1`, > 39 µM (inactive). As for `Cc1nc2c(cnn2-c2ccccc2)c(=O)n1-c1cccc2ccccc12`, the half-maximal activity concentration (AC50) is 1.32 µM. Consider `Cc1ccc(CSC2=Nc3ccccc3C3=NC(CCC(=O)NCc4ccc5c(c4)OCO5)C(=O)N23)c(C)c1` (centres undefined), for which the AC50 is 27.2 µM. Under `Cc1cccc(-c2nc(CSc3nc4c(c(=O)[nH]3)CN(Cc3ccccc3)CC4)c(C)o2)c1` stands > 39 µM (inactive); under `Cc1ccc(S(=O)(=O)N2CSC[C@@H]2C(=O)NCCc2csc(-c3ccccc3)n2)cc1`, 12.9 µM. Under `COc1ccc2c(c1)NC1(CCN(C(=O)CCc3cc(OC)c(OC)c(OC)c3)CC1)c1cccn1-2` stands > 39 µM (inactive); under `O=S(=O)(c1ccccc1)N1CCCCN2[C@@H](CO)[C@@H](c3ccc(C#CC4CCCC4)cc3)[C@@H]2C1`, 17.5 µM and 6.86 µM; under `CS(=O)(=O)N1CC(=O)N2[C@H](C1)[C@@H](c1ccc(C#CCC3CCCC3)cc1)[C@@H]2CO`, 19.2 µM.

In the case of `COc1ccc(N(Cc2nc(-c3ccccc3OC)oc2C)S(=O)(=O)c2ccc(C)cc2)cc1`, the AC50 was 19.3 µM. Consider `CC(C)NC(=O)N1CC(=O)N2[C@H](C1)[C@@H](c1ccc(/C=C/c3ccccc3)cc1)[C@@H]2CO`, for which the AC50 is 10.4 µM. Under `COc1cccc(-c2nc3c(s2)CN(C(=O)Nc2ccc(Cl)cc2)CC3)c1` stands > 20 µM (inactive); under `COc1ccc(-c2nc(NCCCN3CCCC3)c3ccccc3n2)cc1`, 14.2 µM; under `O=C(NCCc1csc(-c2ccccc2)n1)C1CCN(C(=O)c2ccccc2Br)CC1`, 24.6 µM. Under `O=C(CCC1N=C2c3ccccc3N=C(SCc3cc(=O)n4cc(Cl)ccc4n3)N2C1=O)NC1CCCCC1` (centres undefined) stands > 39 µM (inactive). Under `COc1ccc(-c2nc(N3CCN(C4CCCCC4)CC3)c3ccccc3n2)cc1` stands 30.1 µM; under `O=C(CCC1N=C2c3ccccc3N=C(SCc3ccc(Cl)cc3)N2C1=O)NCc1cccs1` (centres undefined), 14.9 µM; under `CCOC(=O)Cn1c(C)c(CN2CCCC2c2cc(C(C)C)no2)c2ccccc21` (centres undefined), 15.5 µM. Take `CC[C@H]1CN2CCC1C[C@@H]2[C@H](O)c1ccnc2ccc(OC)cc12` (some centres undefined): the AC50 is 20 µM.

Regarding `COc1ccc(-c2nc(NCCCN3CCN(Cc4ccccc4)CC3)c3ccccc3n2)cc1`, the AC50 was > 39 µM (inactive).

`CCCC(C)c1c(-c2ccccc2)ncn1Cc1cnc(C)cn1` (centres undefined): the AC50 is 33.4 µM. Under `O=C1c2cccc(O)c2C(=O)c2c(O)cc(CO)cc21` stands 16.6 µM; under `O=C(Nc1ccccc1)N1CC2CN(Cc3ccc(C(F)(F)F)cc3)C2C1` (centres undefined), 36.6 µM. Under `O=C(Nc1cccc(F)c1)N1CCCCN2[C@@H](CO)[C@@H](c3ccc(C#Cc4cccnc4)cc3)[C@@H]2C1` stands > 42 µM (inactive); under `COc1ccccc1C(=O)Nc1ccc(-c2nc(-c3ccccc3)co2)cc1`, 33.3 µM. Under `COCC(=O)N(C[C@H]1N[C@H](CO)[C@@H]1c1ccc(C2=CCCC2)cc1)C1CCCC1` stands 16.3 µM. As to `COc1ccc(-c2nc(CN(c3ccccc3OC)S(=O)(=O)c3ccccc3)c(C)o2)cc1OC`, the AC50 was 3.59 µM. `COc1ccc(S(=O)(=O)N(C)C[C@H]2Oc3c(NC(=O)c4nc5ccccc5s4)cccc3C(=O)N([C@@H](C)CO)C[C@H]2C)cc1`: the half-maximal activity concentration (AC50) is 21.8 µM.

Take `O=S(=O)(c1ccc2c(c1)CCCC2)N1CCC2(CC1)NCCN=C2NC1CCCCCC1`: the half-maximal activity concentration (AC50) is 9.95 µM. Under `O=C(CC1CCC2(CC1)CCN(c1ncc(F)cn1)CC2)N1CC=CC1` stands 19.3 µM; under `O=C1CCc2cc(S(=O)(=O)N3CCc4ccccc4C3)cc3c2N1CCC3`, 31.1 µM; under `Cc1ccc(CNC2=NCCNC23CCN(S(=O)(=O)c2ccc(CC(C)C)cc2)CC3)cc1`, 7.71 µM. Consider `COc1ccc(-c2nc3c(s2)CN(S(=O)(=O)c2cc(C)cc(C)c2)CC3)cc1`, for which the concentration at half-maximal activity (AC50) is 3.89 µM and 11.8 µM. Under `CCc1nc(OCC(=O)N(C)c2ccccc2)c2ccccc2n1` stands 24.4 µM. For the compound `CCOc1ccc(N(Cc2nc(-c3ccc(C)cc3)oc2C)S(=O)(=O)c2ccccc2)cc1`, the AC50 is > 39 µM (inactive). Under `O=C(c1ccc[nH]1)N1CCC2(CC1)COCCN(c1ncccn1)C2` stands 7.07 µM; under `N#C[C@H]1[C@H](c2ccc(-c3cccc(F)c3)cc2)[C@@H](CO)N1C(=O)NC1CCCC1`, 16.7 µM; under `Clc1ccc(-c2nc(N3CCC(c4ccccc4)C3)c3ccccc3n2)cc1` (centres undefined), 32.4 µM. Under `COc1cc([C@@H]2c3cc4c(cc3C(OC3OC5COC(C)OC5C(O)C3O)C3OCC(=O)[C@@H]32)OCO4)cc(OC)c1O` (some centres undefined) stands 8.96 µM; under `N#Cc1cccc(-c2ccc3c(c2)[C@@H]2[C@@H](CCN2S(=O)(=O)c2ccc(F)cc2)[C@H](CO)N3)c1`, 17.8 µM. Under `O=C(CC1N=C2c3ccccc3N=C(SCc3ccccc3F)N2C1=O)NCCc1ccccc1` (centres undefined) stands > 39 µM (inactive); under `CCc1c(C)sc2c1CCN(Cc1nc(-c3cccc(C)c3)oc1C)C2c1ccccc1` (centres undefined), 9.68 µM.
